Tests used:
Assay in all cases: cells
Parameters in all cases: species or system AML cell lines (8); Secondary HTS, 10-point dose-response in triplicate, Cell Titer Glo viability, four-parameter fit EC50
CHRF288-11 = details: 72 h, read-out: CHRF288-11
MV4-11 = details: Homo sapiens, MV4-11, 72 h, read-out: MV4-11
MOLM-13 = details: Homo sapiens, MOLM-13, 72 h, read-out: MOLM-13
U937 = details: Homo sapiens, U-937, 72 h, read-out: U937
CMS = details: 72 h, read-out: CMS
CMK = details: Homo sapiens, CMK, 72 h, read-out: CMK
M07e = details: M-07e, 72 h, read-out: M07e
ML-2 = details: Homo sapiens, ML-2, 72 h, read-out: ML-2

Compound | EC50 (MV4-11) [µM] | EC50 (MOLM-13) [µM] | EC50 (U937) [µM] | EC50 (CHRF288-11) [µM] | EC50 (CMS) [µM] | EC50 (CMK) [µM] | EC50 (M07e) [µM] | EC50 (ML-2) [µM]
COc1ccc([C@@]23Oc4cc(OC)cc(OC)c4[C@]2(O)[C@H](O)[C@H](C(=O)N(C)C)[C@H]3c2ccccc2)cc1 [SJ000834151, ROCAGLAMIDE A] | > 10 | 0.018 | 0.053 | 0.014 | 0.017 | 0.021 | 0.031 | 0.044
Nc1nc(NC2CC2)cc(-c2cccc(Cl)c2Cl)n1 [SJ000834160, TH588] | > 10 | > 10 | 3 | > 10 | > 10 | 4.8 | > 10 | 10
CC1(C)CCC(C)(C)c2cc(NC(=O)c3ccc(C(=O)O)cc3)ccc21 [TAMIBAROTENE] | > 10 | > 10 | > 10 | > 10 | > 10 | > 10 | > 10 | > 10
CCOC(=O)c1ccc(C#Cc2ccc3c(c2)C(C)(C)CCS3)nc1 [TAZAROTENE] | > 10 | > 10 | > 10 | > 10 | > 10 | > 10 | > 10 | > 10
Cn1nnc2c(C(N)=O)ncn2c1=O [TEMOZOLOMIDE] | > 10 | > 10 | > 10 | > 10 | > 10 | > 10 | > 10 | > 10
CO[C@H]1C[C@@H]2CC[C@@H](C)[C@@](O)(O2)C(=O)C(=O)N2CCCC[C@H]2C(=O)O[C@H]([C@H](C)C[C@@H]2CC[C@@H](OC(=O)C(C)(CO)CO)[C@H](OC)C2)CC(=O)[C@H](C)/C=C(\C)[C@@H](O)[C@@H](OC)C(=O)[C@H](C)C[C@H](C)/C=C/C=C/C=C/1C [TEMSIROLIMUS] | > 10 | > 10 | > 10 | > 10 | > 10 | > 10 | > 10 | > 10
CC1=C(/C=C/C(C)=C/C=C/C(C)=C/C(=O)O)C(C)(C)CCC1 [TRETINOIN] | > 10 | > 10 | > 10 | > 10 | > 10 | > 10 | > 10 | > 10
C[C@]1(c2nc3c(C(N)=O)cccc3[nH]2)CCCN1 [VELIPARIB] | > 10 | > 10 | > 10 | > 10 | > 10 | > 10 | > 10 | > 10

Now from value to compound, other results behind:

EC50 (MV4-11) [µM] | EC50 (MOLM-13) [µM] | EC50 (U937) [µM] | Compound | EC50 (CHRF288-11) [µM] | EC50 (CMS) [µM] | EC50 (CMK) [µM] | EC50 (M07e) [µM] | EC50 (ML-2) [µM]
> 10 | > 10 | > 10 | c1ccc(-c2nn3c(c2-c2ccnc4cc(OCCN5CCOCC5)ccc24)CCC3)nc1 [SJ000834150, LY2109761] | > 10 | > 10 | > 10 | > 10 | > 10
> 10 | > 10 | 9.2 | CN1CCN(c2cc(C(=O)Nc3ccc4c(c3)-c3c(c(C(N)=O)nn3-c3ccc(F)cc3)CC4)c(Cl)cn2)CC1 [SJ000834153, PHA 408] | > 10 | > 10 | > 10 | 5.2 | > 10
> 10 | > 10 | > 10 | O=c1cc(N2CCOCC2)oc2c1ccc1ccccc12 [SJ000834163, NU 7026] | > 10 | > 10 | > 10 | > 10 | > 10
1.8 | 1.3 | 0.5 | Cc1ccc(S(=O)(=O)/C=C/C#N)cc1 [SJ000834165, BAY 11-7082] | 1.8 | 3.6 | 4.5 | 3.3 | 0.68
> 10 | > 10 | > 10 | COc1cc(C(=O)NC2CCN(C)CC2)c(F)cc1Nc1ncc2c(n1)N(C1CCCC1)CC(F)(F)C(=O)N2C [TAK-960] | > 10 | > 10 | > 10 | > 10 | > 10
